According to PubChem BioAssay AID330 (DTP/NCI, 2004):
Values joined by “and” are separate entries in the source; they are usually repeats but may differ in a detail not shown here. Identical values can stand only once. Inconclusive results and toxic doses are left out.

Tested on: P388 leukemia ip, CD2F1 mice, survival T/C
Assay: NCI In Vivo Anticancer Drug Screen. Data for tumor model P388 Leukemia (intraperitoneal) in CD2F1 (CDF1) mice
Details: endpoint: median survival time, higher = longer survival
Outline: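 Mice carrying the transplanted tumor received test compound or vehicle. Survival was recorded in each group, and the value is the treated-group measurement divided by that of the vehicle-treated control group.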

[1] = dose: 60.0 mg/kg/injection, schedule: Q01DX005 (ip), vehicle: saline with Tween-80
[2] = dose: 120.0 mg/kg/injection, schedule: Q01DX005 (ip), vehicle: saline with Tween-80
[3] = dose: 240.0 mg/kg/injection, schedule: Q01DX005 (ip), vehicle: saline with Tween-80
[4] = dose: 100.0 mg/kg/injection, schedule: Q01DX009 (ip), vehicle: saline with Tween-80
[5] = dose: 200.0 mg/kg/injection, schedule: Q01DX009 (ip), vehicle: saline with Tween-80
[6] = dose: 12.5 mg/kg/injection, schedule: Q01DX009 (ip), vehicle: saline
[7] = dose: 25.0 mg/kg/injection, schedule: Q01DX009 (ip), vehicle: saline
[8] = dose: 50.0 mg/kg/injection, schedule: Q01DX009 (ip), vehicle: saline
[9] = dose: 50.0 mg/kg/injection, schedule: Q01DX009 (ip), vehicle: saline with Tween-80
[10] = dose: 100.0 mg/kg/injection, schedule: Q01DX009 (ip), vehicle: saline
[11] = dose: 200.0 mg/kg/injection, schedule: Q01DX009 (ip), vehicle: saline
[12] = dose: 6.25 mg/kg/injection, schedule: Q01DX009 (ip), vehicle: saline
[13] = dose: 50.0 mg/kg/injection, schedule: Q01DX009 (ip), vehicle: Klucel (hydroxypropylcellulose) (HPC)
[14] = dose: 100.0 mg/kg/injection, schedule: Q01DX009 (ip), vehicle: Klucel (hydroxypropylcellulose) (HPC)
[15] = dose: 12.5 mg/kg/injection, schedule: Q01DX009 (ip), vehicle: Klucel (hydroxypropylcellulose) (HPC)
[16] = dose: 25.0 mg/kg/injection, schedule: Q01DX009 (ip), vehicle: Klucel (hydroxypropylcellulose) (HPC)
[17] = dose: 50.0 mg/kg/injection, schedule: Q01DX005 (ip), vehicle: saline with Tween-80
[18] = dose: 100.0 mg/kg/injection, schedule: Q01DX005 (ip), vehicle: saline with Tween-80
[19] = dose: 200.0 mg/kg/injection, schedule: Q01DX005 (ip), vehicle: saline with Tween-80

## O=S(=O)(c1ccc(NC(=S)N/N=C/c2ccccc2O)cc1)N1CCCCC1
dose: 12.5 mg/kg/injection, schedule: Q01DX009 (ip), vehicle: olive oil, sesame oil, peanut oil
  T/C: 105 % of control
dose: 25.0 mg/kg/injection, schedule: Q01DX009 (ip), vehicle: olive oil, sesame oil, peanut oil
  T/C: 96 % of control
dose: 50.0 mg/kg/injection, schedule: Q01DX009 (ip), vehicle: olive oil, sesame oil, peanut oil
  T/C: 96 % of control
dose: 100.0 mg/kg/injection, schedule: Q01DX009 (ip), vehicle: olive oil, sesame oil, peanut oil
  T/C: 91 % of control
dose: 200.0 mg/kg/injection, schedule: Q01DX009 (ip), vehicle: olive oil, sesame oil, peanut oil
  T/C: 91 % of control
dose: 400.0 mg/kg/injection, schedule: Q01DX009 (ip), vehicle: olive oil, sesame oil, peanut oil
  T/C: 97 % of control

## CC(=O)Nc1ccccc1OC(=O)NC(C)(C)C
[1]
  T/C: 97 % of control
[2]
  T/C: 100 % of control
[3]
  T/C: 90 % of control

## Nc1ccc(Cl)cc1C(=O)N1CCN(c2ccc([N+](=O)[O-])cn2)CC1
dose: 7.5 mg/kg/injection, schedule: Q01DX005 (ip), vehicle: Klucel (hydroxypropylcellulose) (HPC)
  T/C: 99 % of control
dose: 15.0 mg/kg/injection, schedule: Q01DX005 (ip), vehicle: Klucel (hydroxypropylcellulose) (HPC)
  T/C: 92 % of control
dose: 30.0 mg/kg/injection, schedule: Q01DX005 (ip), vehicle: Klucel (hydroxypropylcellulose) (HPC)
  T/C: 93 % of control

## Cc1cc(Br)c2ccccc2c1NS(=O)(=O)c1ccccc1
[4]
  T/C: 100 % of control
[5]
  T/C: 100 % of control
dose: 400.0 mg/kg/injection, schedule: Q01DX009 (ip), vehicle: saline with Tween-80
  T/C: 90 % of control

## CNC(=O)OCc1c(COC(=O)NC)c(C)n(-c2ccc(Cl)cc2)c1C
[6]
  T/C: 160 % of control
[7]
  T/C: 166 % of control

## C=C1CC2(OC1=O)C(=O)N(C)c1ccc(I)cc12 (centres undefined)
[7]
  T/C: 116 % of control
[8]
  T/C: 87 % of control

## CCCc1c2cc(OC)c(OC)cc2cc2c3cc(OC)c(OC)cc3cc[n+]12 (tested in a mixture with another compound)
dose: 25.0 mg/kg/injection, schedule: Q01DX009 (ip), vehicle: saline with Tween-80
  T/C: 102 % of control
[9]
  T/C: 111 % of control
[4]
  T/C: 109 % of control

## NS(=O)(=O)c1cccnc1Nc1ccc(Cl)c(Cl)c1
[8]
  T/C: 86 % of control
[10]
  T/C: 93 % of control
[11]
  T/C: 101 % of control

## O=NNc1ccc(C(=O)O)cn1
dose: 3.12 mg/kg/injection, schedule: Q01DX009 (ip), vehicle: saline
  T/C: 108 % of control
[12]
  T/C: 100 % of control
[6]
  T/C: 106 % of control
[7]
  T/C: 97 % of control
[8]
  T/C: 100 % of control
[10]
  T/C: 91 % of control
[11]
  T/C: 110 % of control

## CCOC(=O)C1=C(c2ccccc2)Nc2ccccc2[S+]1C (centres undefined)
dose: 15.0 mg/kg/injection, schedule: Q01DX005 (ip), vehicle: saline
  T/C: 99 % of control
dose: 30.0 mg/kg/injection, schedule: Q01DX005 (ip), vehicle: saline
  T/C: 98 % of control
dose: 60.0 mg/kg/injection, schedule: Q01DX005 (ip), vehicle: saline
  T/C: 98 % of control and 96 % of control

## c1cc2ccc1CSCCCSCc1ccc(cc1)CSCCCSC2
dose: 25.0 mg/kg/injection, schedule: Q01DX009 (ip), vehicle: suspension in saline
  T/C: 100 % of control
dose: 50.0 mg/kg/injection, schedule: Q01DX009 (ip), vehicle: suspension in saline
  T/C: 92 % of control
dose: 100.0 mg/kg/injection, schedule: Q01DX009 (ip), vehicle: suspension in saline
  T/C: 98 % of control

## O=[N+]([O-])c1ccc(CN2CCN(c3nccs3)CC2)cc1
[13]
  T/C: 101 % of control
[14]
  T/C: 105 % of control
dose: 200.0 mg/kg/injection, schedule: Q01DX009 (ip), vehicle: Klucel (hydroxypropylcellulose) (HPC)
  T/C: 105 % of control

## Nc1nnc(-c2ccccc2)s1
[15]
  T/C: 114 % of control
[16]
  T/C: 107 % of control
dose: 50.0 mg/kg/injection, schedule: Q01DX008 (ip), vehicle: Klucel (hydroxypropylcellulose) (HPC)
  T/C: 109 % of control
[13]
  T/C: 114 % of control
dose: 100.0 mg/kg/injection, schedule: Q01DX008 (ip), vehicle: Klucel (hydroxypropylcellulose) (HPC)
  T/C: 109 % of control
dose: 200.0 mg/kg/injection, schedule: Q01DX008 (ip), vehicle: Klucel (hydroxypropylcellulose) (HPC)
  T/C: 114 % of control

## O=C1c2c(ccc3ccccc23)CN2CCCCC12 (centres undefined)
[1]
  T/C: 101 % of control
[2]
  T/C: 103 % of control
[3]
  T/C: 103 % of control

## CCOC(=O)/C(C#N)=N/O
[12]
  T/C: 104 % of control and 114 % of control and 90 % of control
[6]
  T/C: 102 % of control and 104 % of control and 95 % of control
[7]
  T/C: 111 % of control and 97 % of control
[8]
  T/C: 101 % of control and 104 % of control and 107 % of control

## COC(=O)[C@@H]1CON(Cc2ccccc2)C1CC1(C)OCCO1 (some centres undefined)
[1]
  T/C: 103 % of control
[2]
  T/C: 104 % of control
[3]
  T/C: 109 % of control

## ClCSCc1ccccc1
dose: 12.5 mg/kg/injection, schedule: Q01DX009 (ip), vehicle: other
  T/C: 110 % of control
dose: 25.0 mg/kg/injection, schedule: Q01DX009 (ip), vehicle: other
  T/C: 110 % of control
dose: 50.0 mg/kg/injection, schedule: Q01DX009 (ip), vehicle: other
  T/C: 110 % of control

## Cc1cnc2c(c1)CCCC2C(N)=S (centres undefined)
[8]
  T/C: 99 % of control
[10]
  T/C: 95 % of control
[11]
  T/C: 107 % of control

## O=C(Nc1ccc(Cl)c(Cl)c1)N1CC=CC1
dose: 100.0 mg/kg/injection, schedule: Q04DX003 (ip), vehicle: Klucel (hydroxypropylcellulose) (HPC)
  T/C: 101 % of control
dose: 200.0 mg/kg/injection, schedule: Q04DX003 (ip), vehicle: Klucel (hydroxypropylcellulose) (HPC)
  T/C: 96 % of control
dose: 400.0 mg/kg/injection, schedule: Q04DX003 (ip), vehicle: Klucel (hydroxypropylcellulose) (HPC)
  T/C: 94 % of control

## CCS[C@@H](C(O)C(O)C(O)C(O)CO)n1cnc2c(Cl)ncnc21 (some centres undefined)
[17]
  T/C: 98 % of control
[18]
  T/C: 102 % of control
[19]
  T/C: 96 % of control

## NN1C(=O)C2C3C=CC(O3)C2C1=O (centres undefined)
dose: 50.0 mg/kg/injection, schedule: Q01DX005 (ip), vehicle: saline
  T/C: 98 % of control
dose: 100.0 mg/kg/injection, schedule: Q01DX005 (ip), vehicle: saline
  T/C: 98 % of control
dose: 200.0 mg/kg/injection, schedule: Q01DX005 (ip), vehicle: saline
  T/C: 100 % of control

## COC1/C=C/OC2(C)Oc3c(C)c(O)c4c(O)c(c(/C=N/N5C(C)CN(Cc6ccc(C)cc6)CC5C)c(O)c4c3C2=O)NC(=O)C(C)=C/C=C/C(C)C(O)C(C)C(O)C(C)C(OC(C)=O)C1C (centres undefined)
[9]
  T/C: 97 % of control
[4]
  T/C: 96 % of control
[5]
  T/C: 103 % of control

## Cc1cc(C2=CSC3=NCCN23)ccc1Cl
[17]
  T/C: 107 % of control
[18]
  T/C: 105 % of control

## COc1cc2c[n+](C)c3c(c2cc1OC)Cc1c-3ccc(O)c1OC
dose: 100.0 mg/kg/injection, schedule: Q01DX001 (ip), vehicle: Klucel (hydroxypropylcellulose) (HPC)
  T/C: 116 % of control

## CC(=O)NCCn1nc(-c2ccc(Cl)cc2)c(-c2ccc(Cl)cc2)c(C(C)=O)c1=O
dose: 6.25 mg/kg/injection, schedule: Q01DX005 (ip), vehicle: saline with Tween-80
  T/C: 103 % of control
dose: 12.5 mg/kg/injection, schedule: Q01DX005 (ip), vehicle: saline with Tween-80
  T/C: 103 % of control

## c1ccc(SC2=C(Sc3ccccc3)CC2)cc1
[17]
  T/C: 102 % of control
[18]
  T/C: 111 % of control
[19]
  T/C: 102 % of control

## CSc1nc(NC2OC(CO)C(O)C(O)C2O)c(Cl)c(=O)n1C (centres undefined)
dose: 15.0 mg/kg/injection, schedule: Q01DX005 (ip), vehicle: saline with Tween-80
  T/C: 94 % of control
dose: 30.0 mg/kg/injection, schedule: Q01DX005 (ip), vehicle: saline with Tween-80
  T/C: 95 % of control
[1]
  T/C: 91 % of control and 97 % of control
[2]
  T/C: 100 % of control

## Cn1c2ccccc2c(=O)c2cc(NC(=O)CCC(=O)Nc3ccc4c(c3)c(=O)c3ccccc3n4C)ccc21
[17]
  T/C: 99 % of control
[18]
  T/C: 97 % of control
[19]
  T/C: 97 % of control

## Cc1c2oc3c(C)ccc(C(=O)NCCN4CCCCC4)c3nc-2c(C(=O)NCCN2CCCCC2)c(N)c1=O
[15]
  T/C: 98 % of control
[16]
  T/C: 117 % of control
[13]
  T/C: 115 % of control
[14]
  T/C: 110 % of control
